Reference: patent US20250170110A1, “LYMPHATIC TARGETED ANTI-COAGULANT FOR THE PREVENTION OF LYMPHATIC THROMBOSIS” (THE TRUSTEES OF THE UNIVERSITY OF PENNSYLVANIA, priority 2022, published 2025)

Tested on: gut lymphatic clotting
Test: lymphatic clots in mice with induced deletion of lymphatic endothelial thrombomodulin (THBD)
Assay type: in vivo
Conditions: oral warfarin in water, 3 weeks after induction
Excerpt: FIGS. 7A-7C show oral delivery of warfarin prevents lymphatic clots in mouse model of lymphothrombosis. […] P-values are indicated by asterisks as follows: ***p<0.001.
However, dosing with existing antithrombotic drugs will confer systemic anticoagulation, with established significant risks of bleeding throughout the body, including in the gut and brain. […] Therefore, there is a clear need for a functional antithrombotic drug that can be delivered and act preferentially to the gut lymphatics at a therapeutic dose. In addition, the volume of lymphatic fluid in the gut is much less than the volume of blood in the body, which means that a therapeutic dose of drug directly to the gut lymphatics will be massively diluted once it reaches the blood stream to well below therapeutic levels, thereby preventing systemic anticoagulation and inappropriate bleeding.

For CC(=O)CC(c1ccccc1)c1c(O)c2ccccc2oc1=O (stereo not shown) [warfarin], the “lymphatic clotting (fibrin positive lymphatic vessels)” value was “prevented lymphatic clotting”.
